Assay results taken from patent US4017540A, “Method of use, composition, and compounds” (The Upjohn Company, priority 1972, dated 1977).
Entries after “also recorded” stand apart in the source; their conditions may differ.

Key:
Settings in all cases: in vivo
parasitic worms = assay: anthelmintic activity (general; sheep)
anorexigenic activity = assay: anorexigenic activity
insects and mites = assay: insecticidal and miticidal activity (general)

Compound: ClC(=NNc1ccccc1)c1ccccc1 [benzoyl chloride phenylhydrazone]
- anthelmintic activity (parasitic worms): effective against worms; also recorded: efficacious anthelmintic agents

Compound: ClC(=NNc1cc(Cl)ccc1Cl)c1ccccc1 [benzoyl chloride (2,5-dichlorophenyl)hydrazone]
- anorexigenic activity (anorexigenic activity): have anorexigenic activity

Compound: Fc1c(F)c(F)c(C(Cl)=NNc2ccccc2)c(F)c1F [pentafluorobenzoyl chloride phenylhydrazone]
- insecticidal and miticidal activity (insects and mites): outstanding insecticidal and miticidal agent
